Reference: patent publication US9399192B2, “Carbon dioxide absorber and carbon dioxide separation/recovery method using the absorber” (ASAHI KASEI KABUSHIKI KAISHA, priority 2011, dated 2016)
Where two headings read alike, the source gives them in different places.

Legend:
[1] = pH 0.4
[2] = type: physicochemical
Description: Thus, Compound A is extremely useful since it is able to reduce volatilization loss when contacting a gas. In addition, the weak basicity per amino group is attributable to the diamine structure. […]. Thus, Compound A is extremely useful since it allows a wide range of materials to be selected for use in the reactor.

[3] = Evaluation of reactivity of aqueous amine solutions with carbon dioxide; type: physicochemical; conditions: for Absorbed amount at 30° C. (moles CO2/moles N) / Absorbed amount at 90° C. (moles CO2/moles N): aqueous amine 1.81 mol/L (monoamine) or 0.91 mol/L (diamine), CO2 300 mL/min 15 minutes; for CO2 desorption performance (moles CO2/moles N): difference between absorbed amount at 30° C. and at 90° C.
Description: Amine compounds were mixed with water to prepare aqueous amine solutions. At this time, the concentration of monoamine compounds having one amino group was adjusted to 1.81 mol/L, while the concentration of diamine compounds having two amino groups was adjusted to 0.91 mol/L. Carbon dioxide gas was blown into 25 mL aliquots of each aqueous amine solution for 15 minutes at 300 mL/min to allow the amine compound to react with the carbon dioxide. The reactions were carried out at temperatures of 30° C. and 90° C., and the reacted amount was calculated from element ratios of C and N before and after the reaction as measured with the Model TOC-VCP and Model TNM-1 Total Organic Carbon Analyzers (Shimadzu Corp.).
The absorbed amounts are represented by the number of moles of carbon dioxide reacting with respect to 1 mole of amino group, or in other words, moles CO2/moles N.
(§1) Table 7 indicates a comparison of performance when used as an amine compound for a carbon dioxide absorber. Those parameters evaluated as indicators of performance consisted of absorbed amount at 30° C., absorbed amount at 90° C. and heat of reaction. Furthermore, the difference between the absorbed amount at 30° C. and the absorbed amount at 90° C. was taken to represent carbon dioxide desorption performance. Values for heat of reaction are shown in Table 7 after converting to heat of reaction (kJ/mol) per 1 mole of reacted carbon dioxide using a calibration curve obtained when the reacted amount of the amino groups of each amine compound and carbon dioxide reached 0.10 mol CO2/mol N.

[4] = Evaluation of heat of reaction of aqueous amine solutions (C-80 reaction calorimeter, FIG. 9C); type: physicochemical; conditions: 30° C., per 1 mole of reacted CO2 at reacted amount 0.10 mol CO2/mol N
Description: * Evaluation of Heat of Reaction Heat of reaction was measured using the apparatus shown in FIG. 9C with the Model C-80 Reaction calorimeter (Setaram Inc.) 936. A gas circulation normal pressure type cell (stainless steel 31/1415) was used for the cell, and the gas inlet port and outlet port were connected as shown in FIG. 9C. 4 g aliquots of each aqueous amine compound solution were placed in the cell after adjusting to the same concentrations as those used in the aforementioned evaluation of reactivity ([…] in the case of monoamine compounds and […] in the case of diamine compounds) and the cell was then placed in the C-80 Reaction calorimeter. The cell temperature was adjusted to 30° C. and allowed to stabilize. 50 mL of carbon dioxide were injected into a gas syringe 930 from carbon dioxide supplied from a carbon dioxide cylinder 929 by closing a valve 932 followed by opening the valve 932. The reacted amount was then measured based on the change in internal pressure measured with a pressure gauge 933 while measuring the amount of heat generated with the C-80 Reaction calorimeter. The amount of heat generated and reacted amount were calculated in advance using a calibration curve of heat of compression and internal pressure determined in the absence of a sample.
as §1

physchem = conditions: aqueous solution
[5] = pKb of amine compounds / pKa of weakly acidic compounds calculated from pH of aqueous solution; conditions: amine compound, aqueous solution at 30° C., calculated from pH of 0.4 M aqueous solution

| Compound | Absorbed amount at 30° C. (moles CO2/moles N) [3] [moles CO2/moles N] | Absorbed amount at 90° C. (moles CO2/moles N) [3] [moles CO2/moles N] | CO2 desorption performance (moles CO2/moles N) [3] [moles CO2/moles N] | Heat of reaction [4] [kcal/mol] | pKb [5] | other results |
| --- | --- | --- | --- | --- | --- | --- |
| OCCNCC(O)CNCCO [BHEP, 1,3-bis(2-hydroxyethylamino)propan-2-ol] | 0.516 | 0.214 | 0.302 | 16.1 | – | pKb [1]: 6.3; vapor pressure [2]: 0.04 mPa |
| CC(O)CNCC(O)CNCC(C)O (centres unmarked) [BHPP, 1,3-bis(2-hydroxypropylamino)propan-2-ol] | 0.498 | 0.213 | 0.285 | 16.3 | – | – |
| OB(O)O [Boric acid] | – | – | – | – | – | pKa (physchem): 9.2 |
| NCC(O)CN [DAP, 1,3-diaminopropan-2-ol] | 0.601 | 0.409 | 0.192 | 20.9 | – | – |
| OCCNCCO [DEA, Diethanolamine] | – | – | – | – | – | pKb [1]: 5.4 |
| CCNCCO [EAE, 2-ethylaminoethanol] | 0.631 | 0.279 | 0.352 | 20.8 | 4.4 | – |
| NC(CO)CO [Example 2A13PD, 2-amino-1,3-propanediol] | – | – | – | – | 5.6 | – |
| CC(O)CNCC(O)CNCCO (centres unmarked) [HEHPP, 1-(2-hydroxyethylamino)-3-(2-hydroxypropylamino)propan-2-ol] | 0.506 | 0.213 | 0.293 | 16.1 | – | – |
| CC(C)NCCO [IPAE, 2-isopropylaminoethanol] | – | – | – | – | 4.1 | – |
| NCCO [MEA, Monoethanolamine] | 0.614 | 0.400 | 0.214 | 21.6 | – | pKb [1]: 4.7 |
| C1CNCCN1 [Pz, piperazine] | – | – | – | – | 4.8 | – |
| CCOB(OCC)OCC [TEB, Triethylborate] | – | – | – | – | – | pKa (physchem): 8.1 |
| COB(OC)OC [TMB, Trimethylborate] | – | – | – | – | – | pKa (physchem): 8.7 |
